Assay results as given in patent publication US6492384B1, “Imidazo (4,5-C) pyridine-4-one derivatives with factor XA inhibiting effect” (Merck Patent GmbH, priority 1998, dated 2002).

SMILES	melting point
Cc1nc(-c2ccc3ccc(Cn4ccc5nc(C(C)C)n(Cc6ccc7ccc(-c8noc(C)n8)cc7c6)c5c4=O)cc3c2)no1 [BC2, 2-isopropyl-3-[7-(5-methyl[1,2,4]oxadiazol-3-yl)naphth-2-ylmethyl]-5-[7-(5-methyl[1,2,4]oxadiazol-3-yl)naphth-2-ylmethyl]-3,5-dihydroimidazo[4,5-c]pyridin-4-one]	201 to 202 °C
Cc1nc(-c2ccc(Cn3ccc4nc(C(C)C)n(Cc5ccc6ccc(-c7noc(C)n7)cc6c5)c4c3=O)cc2)no1 [BC3, 2-isopropyl-3-[7-(5-methyl[1,2,4]oxadiazol-3-yl)naphth-2-ylmethyl]-5-[4-(5-methyl[1,2,4]oxadiazol-3-yl)benzyl]-3,5-dihydroimidazo[4,5-c]pyridin-4-one]	172 to 173 °C
Cc1nc(-c2ccc3ccc(Cn4c(C(C)C)nc5ccn(Cc6ccccc6-c6noc(C)n6)c(=O)c54)cc3c2)no1 [BC4, 2-isopropyl-3-[7-(5-methyl[1,2,4]oxadiazol-3-yl)naphth-2-ylmethyl]-5-[2-(5-methyl[1,2,4]oxadiazol-3-yl)benzyl]-3,5-dihydroimidazo[4,5-c]pyridin-4-one]	149 to 150 °C
Cc1nc(-c2ccc3ccc(Cn4c(C(C)C)nc5ccn(Cc6ccccc6)c(=O)c54)cc3c2)no1 [BC5, 2-isopropyl-3-[7-(5-methyl[1,2,4]oxadiazol-3-yl)naphth-2-ylmethyl]-5-benzyl-5H-imidazo[4,5-c]pyridin-4-one]	112 to 113 °C
